Reference: patent US11564924B2, “Pharmaceutical composition formed by combining pyridoxamine compound and thiamine compound” (RENASCIENCE CO., LTD., priority 2014, dated 2023)

What was measured:
vitamin B1 = experiment: Whole blood vitamin B1 amount in schizophrenia patients during drug administration (LC/MS/MS); type: in vivo, human
Procedure: Measurement of the amount of vitamin B1 in whole blood (blood collection with heparin) was outsourced to SRL Inc., and the measurement was performed using LC/MS/MS.

[1] = tested on: Wernicke's encephalopathy; experiment: Wernicke's encephalopathy findings (MRI of the brain, symptoms) during drug administration; type: in vivo, human
Procedure: Immediately after the patient was suspected of having Wernicke's encephalopathy, oral administration of a thiamine compound (fursultiamine (Takeda Pharmaceutical Company Limited)) at a dose of 75 mg/day was initiated (administered once a day) and continued every day.
Immediately after the patient was suspected of having Wernicke's encephalopathy, intravenous administration of a thiamine compound (fursultiamine (Takeda Pharmaceutical Company Limited)) (300 mg/day) was performed, and then (from 10 weeks after the start of drug administration), oral administration of the thiamine compound at a dose of 100 to 50 mg/day was continued.

[2] = tested on: vitamin B1 in human whole blood; experiment: In vitro effect on vitamin B1 concentration in human whole blood; conditions: human whole blood, 5, 50, 500 μg/mL, 37° C.
Text: In addition, as described in Experiment Example 1 and Experiment Example 2, administration of a pyridoxamine compound increases not only the serum pyridoxamine concentration, but also the serum pyridoxal concentration, and thus, pyridoxamine and pyridoxal were both used as test substances for the investigation.
Blood was collected from a human using EDTA⋅2K as an anticoagulant. In addition, pyridoxamine dihydrochloride (Sigma-Aldrich Japan) was used as pyridoxamine, and pyridoxal hydrochloride (Nacalai Tesque, Inc.) was used as pyridoxal. They were dissolved at 0.5, 5, and 50 mg/mL in physiological saline to prepare test solutions. 10 μL of each test solution was individually added per mL of the whole blood collected above (test samples). The final concentrations of each test substance in the test samples were 5, 50, 500 μg/mL. Further, a vehicle was prepared by adding 10 μl of physiological saline to 1 ml of the whole blood. The vehicle and the test samples were incubated at 37° C. for 1 hour or 16 hours and then immediately frozen. Measurement of the vitamin B1 concentrations in the whole blood before the start of the incubation to which neither the physiological saline nor any test solution was added (baseline: indicated by “BL” in FIG. 4), and in the vehicle and in each test sample after the incubation, was outsourced to SRL Inc., and the measurement was performed using LC/MS/MS.

CC(=C(CCO)SSCC1CCCO1)N(C=O)Cc1cnc(C)nc1N (stereo in doubt) [fursultiamine]
whole blood vitamin B1 amount (vitamin B1; patient ID No. 3, 12 weeks after the start of drug administration (6 weeks after start of fursultiamine 75 mg/day oral), pyridoxamine compound continued): 135 ng/mL | whole blood vitamin B1 amount (vitamin B1; patient ID No. 6, 11 weeks after the start of drug administration (3 weeks after start of thiamine compound: 300 mg/day intravenous, then 100 to 50 mg/day oral)): 150 ng/mL | symptom of Wernicke's encephalopathy ([1]; patient ID No. 3, 14 weeks after the start of drug administration (8 weeks after the start of the thiamine compound, 75 mg/day oral)): disappeared | symptom of Wernicke's encephalopathy ([1]; patient ID No. 6, 11 weeks after the start of drug administration (3 weeks after the start of the thiamine compound)): disappeared

Cc1ncc(CO)c(C=O)c1O.Cl [pyridoxal hydrochloride]
change in whole blood vitamin B1 concentration ([2]; 1 hour incubation): decrease in the vitamin B1 concentration in a manner dependent on the concentration of pyridoxal hydrochloride | change in whole blood vitamin B1 concentration ([2]; 16 hours incubation): decrease in the vitamin B1 concentration in a manner dependent on the concentration of pyridoxal hydrochloride
